Assay [1] has as its target T1, Androgen receptor (Homo sapiens) (UniProt P10275).
T1 sequence (whole entry): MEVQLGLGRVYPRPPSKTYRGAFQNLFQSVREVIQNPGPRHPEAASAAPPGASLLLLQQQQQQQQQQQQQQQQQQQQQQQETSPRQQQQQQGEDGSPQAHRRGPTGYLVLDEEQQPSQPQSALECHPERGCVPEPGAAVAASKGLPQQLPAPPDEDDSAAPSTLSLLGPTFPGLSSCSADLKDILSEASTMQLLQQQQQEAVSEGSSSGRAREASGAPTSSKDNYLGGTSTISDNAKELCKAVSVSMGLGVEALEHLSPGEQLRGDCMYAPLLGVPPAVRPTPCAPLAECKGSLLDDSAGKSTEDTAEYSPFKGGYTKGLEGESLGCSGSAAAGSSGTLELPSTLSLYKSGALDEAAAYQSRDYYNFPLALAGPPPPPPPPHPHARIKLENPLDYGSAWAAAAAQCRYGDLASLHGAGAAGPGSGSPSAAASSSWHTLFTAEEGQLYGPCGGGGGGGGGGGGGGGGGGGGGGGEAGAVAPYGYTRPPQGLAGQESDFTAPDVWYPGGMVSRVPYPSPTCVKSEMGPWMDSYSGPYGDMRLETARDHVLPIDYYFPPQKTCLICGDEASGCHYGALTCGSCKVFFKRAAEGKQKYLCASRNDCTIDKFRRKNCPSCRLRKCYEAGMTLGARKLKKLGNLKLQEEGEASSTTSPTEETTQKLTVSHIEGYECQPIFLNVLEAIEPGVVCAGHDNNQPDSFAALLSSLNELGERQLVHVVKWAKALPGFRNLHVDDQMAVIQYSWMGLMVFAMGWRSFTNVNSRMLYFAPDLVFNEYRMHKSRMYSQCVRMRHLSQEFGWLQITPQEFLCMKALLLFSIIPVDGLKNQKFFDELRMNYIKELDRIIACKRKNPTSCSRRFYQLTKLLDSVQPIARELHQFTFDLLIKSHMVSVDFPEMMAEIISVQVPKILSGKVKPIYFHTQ
Briefly: Inhibition of androgen receptor in human LNCaP cells assessed as reduction in DHT-induced PSA mRNA expression level at 1 to 5 uM incubated for 24 hrs by qRT-PCR analysis. It is filed as cell-based. The following applies: dose 1-5 µM.

Assay [2] addresses T1, Androgen receptor (Homo sapiens). Kind of assay: Inhibition of androgen receptor in human PC-3 cells assessed as inhibition of AR transcription activity by dual-luciferase reporter assays. It is filed as cell-based. A general note: In a reporter assay the amount or activity of a reporter protein is the signal.
For assay [3] the target is unchanged. Kind of assay: Inhibition of androgen receptor in human LNCaP cells assessed as reduction in DHT-induced PSA level at 1 to 5 uM incubated for 24 hrs by western blot analysis. The following applies: dose 1-5 µM. It is filed as cell-based.
Assay [4] shares this target. Kind of assay: Inhibition of androgen receptor in human LNCaP cells assessed as reduction in DHT-induced AR expression level at 1 to 5 uM incubated for 24 hrs by western blot analysis. It is filed as cell-based. The following applies: dose 1-5 µM. Background: A western blot detects proteins with antibodies after separation by electrophoresis.
For assay [5] the target is unchanged. Briefly: Inhibition of androgen receptor in human 22Rv1 cells assessed as reduction in DHT-induced AR expression level at 1 to 5 uM incubated for 24 hrs by western blot analysis. Conditions: dose 1-5 µM. It is filed as cell-based.
Assay [6] shares this target. Kind of assay: Inhibition of androgen receptor in human 22Rv1 cells assessed as reduction in DHT-induced PSA level at 1 to 5 uM incubated for 24 hrs by western blot analysis. It is filed as cell-based. The following applies: dose 1-5 µM.
Assay [7] has the same target. Briefly: Inhibition of androgen receptor in human LNCaP cells assessed as reduction in DHT-induced AR mRNA expression level at 1 to 5 uM incubated for 24 hrs by qRT-PCR analysis. It is filed as cell-based. The following applies: dose 1-5 µM. For orientation: In qPCR the cycle at which signal appears reflects the starting amount.
The target is the same in assay [8]. Kind of assay: Inhibition of androgen receptor in human 22Rv1 cells assessed as reduction in DHT-induced AR mRNA expression level at 1 to 5 uM incubated for 24 hrs by qRT-PCR analysis. It is filed as cell-based. The following applies: dose 1-5 µM.
Assay [9] has the same target. Briefly: Inhibition of androgen receptor in human 22Rv1 cells assessed as reduction in DHT-induced PSA mRNA expression level at 1 to 5 uM incubated for 24 hrs by qRT-PCR analysis. It is filed as cell-based. The following applies: dose 1-5 µM.
For another assay, the system named is LNCaP. Kind of assay: Antiproliferative activity against human LNCaP cells assessed as cell growth inhibition incubated for 72 hrs by MTT assay. It is filed as functional, cell-based.
The test system of another assay is PC-3. Briefly: Antiproliferative activity against human PC-3 cells assessed as cell growth inhibition incubated for 72 hrs by MTT assay. It is filed as functional, cell-based. Conditions: PC-3, 72 h.
A further assay has as its system CWR22R. Briefly: Antiproliferative activity against human 22Rv1 cells assessed as cell growth inhibition incubated for 72 hrs by MTT assay. It is filed as functional, cell-based. Conditions: 22Rv1, 72 h.
For assay [10], the target named is T1, Androgen receptor (Homo sapiens). Briefly: Inhibition of androgen receptor in human 22Rv1 cells assessed as reduction in BCL-2 expression level at 1 to 10 uM incubated for 24 hrs by western blot analysis. Conditions: dose 1-10 µM. It is filed as cell-based.
Assay [11] shares this target. Briefly: Inhibition of androgen receptor in human 22Rv1 cells assessed as reduction in […] expression level at 1 to 10 uM incubated for 24 hrs by western blot analysis. It is filed as cell-based. Conditions: dose 1-10 µM.

Usually pIC50 stands for −log10 of the IC50, conventionally taken in molar units.

The structures appear in SMILES notation. pIC50: −log10 of the molar value. Calls of active or inactive are those of the source. The rule behind the calls is not given here.

For `CC1=CC2C(C(C)C)=C(O)C(=O)/C(=C\NCCS(=O)(=O)O)C2C(O)=C1c1c(C)cc2c(c1O)/C(=C/NCCS(=O)(=O)O)C(=O)C(O)=C2C(C)C` (centres undefined), the inhibition entry in [1], in assay [2], in assay [3], in [4], in assay [7] and in assay [8] was “Dose-Dependent Effect” each time. In addition, the inhibition result in assay [9] is “Dose-Dependent Effect”. Also, the inhibition result in assay [5], in [6], in [10] and in assay [11] was “Active” each time. In addition, the figures for the pIC50 in the assay with LNCaP, in the assay on PC-3 and in the assay with CWR22R were 6.46, 5.50 and 6.04, respectively.

These data come from ChEMBL document CHEMBL5223107 (Bioorg Med Chem Lett, 2022).
